Measured values: patent US12060349B2, “Glucosylceramide synthase inhibitors” (Genzyme Corporation, priority 2012, dated 2024)
Where two headings read alike, the source gives them in different places.

Tests used:
[1] = molecular target: T1, glucosylceramide synthase (Homo sapiens, UniProt Q16739); test: microsomal assay measuring conversion of ceramide to glucosylceramide by HPLC (GCS IC50); type: biochemical; details: concentration causing 50% inhibition of glucosylceramide synthase activity
T1 construct: Microsomes were isolated from A375 human melanoma cells; endogenous in cells; host or cells: A375 human melanoma cells (microsomal fraction, 100,000 g pellet)
T1 sequence (Q16739 1-394): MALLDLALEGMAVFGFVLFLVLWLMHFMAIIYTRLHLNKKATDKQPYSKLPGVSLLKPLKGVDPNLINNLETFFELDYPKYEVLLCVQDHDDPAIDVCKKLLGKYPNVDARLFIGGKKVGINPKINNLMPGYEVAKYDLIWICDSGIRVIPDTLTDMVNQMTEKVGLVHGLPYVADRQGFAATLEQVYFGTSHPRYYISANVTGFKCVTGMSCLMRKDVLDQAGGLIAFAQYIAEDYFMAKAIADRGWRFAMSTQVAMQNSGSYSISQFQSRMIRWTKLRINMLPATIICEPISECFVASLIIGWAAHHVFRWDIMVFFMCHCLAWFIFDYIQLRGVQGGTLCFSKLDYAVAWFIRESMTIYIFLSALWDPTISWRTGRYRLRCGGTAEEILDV
In short: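 IC50 is the compound concentration halving glucosylceramide synthase activity. Activity was measured in microsomes, with HPLC quantifying glucosylceramide formed from ceramide.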

[2] = system: GM3 expression on the cell surface, B16 mouse melanoma cells; test: cell based phenotypic assay, cell surface GM3 by antibody mediated immunofluorescence, B16 (GM3 B16 IC50); details: 50% inhibition of GM3 expression on the cell surface
In short: (§1)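 Two melanoma lines, mouse B16 and human C32, were treated and surface GM3 quantified by antibody immunofluorescence for IC50. A parallel viability readout gives the concentration killing 50% of cells, with values over 10 indicating no cell death.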

[3] = system: GM3 expression on the cell surface, C32 human melanoma cells; test: cell based phenotypic assay, cell surface GM3 by antibody mediated immunofluorescence, C32 (GM3 C32 IC50); details: 50% inhibition of GM3 expression on the cell surface
In short: as §1

B16 mouse melanoma cells = test: cell viability in the B16 cell-based assay (Viability, B16 IC50)
In short: (§2)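 Cell death was scored within the cell-based GM3 experiment for each line. The viability value is the concentration producing 50% death, and numbers exceeding 10 signify no cytotoxicity.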

C32 human melanoma cells = test: cell viability in the C32 cell-based assay (Viability, C32 IC50); details: concentration causing 50% cell death, values greater than 10 represent a lack of cell death
In short: as §2

[4] = B16 mouse melanoma cells, read-out: GM3 B16 IC50
[5] = C32 human melanoma cells, read-out: GM3 C32 IC50
[6] = B16 cells, concentration causing 50% cell death, values greater than 10 represent a lack of cell death, read-out: Viability, B16 IC50
[7] = C32 cells, read-out: Viability, C32 IC50
[8] = Mus musculus, B16 mouse melanoma cells, read-out: GM3 B16 IC50
[9] = Homo sapiens, C32 human melanoma cells, read-out: GM3 C32 IC50
[10] = Mus musculus, B16, B16 cells, concentration causing 50% cell death, values greater than 10 represent a lack of cell death, read-out: Viability, B16 IC50
[11] = Homo sapiens, C32, C32 cells, read-out: Viability, C32 IC50
[12] = Mus musculus, read-out: GM3 B16 IC50, B16 mouse melanoma cells
[13] = Homo sapiens, read-out: GM3 C32 IC50, C32 human melanoma cells
[14] = Mus musculus, B16, read-out: Viability, B16 IC50
[15] = Homo sapiens, C32, read-out: Viability, C32 IC50, C32 cells

IC50 [1] [nM]	IC50 [2, 4] [nM]	IC50 [3, 5] [nM]	IC50 [2, 8] [nM]	IC50 [3, 9] [nM]	SMILES	IC50 (B16 mouse melanoma cells; [6]) [nM]	IC50 (C32 human melanoma cells; [7]) [nM]	IC50 (B16 mouse melanoma cells; [10]) [nM]	IC50 (C32 human melanoma cells; [11]) [nM]	IC50 [2, 12] [nM]	IC50 [3, 13] [nM]	IC50 (B16 mouse melanoma cells; [14]) [nM]	IC50 (C32 human melanoma cells; [15]) [nM]
1.8	109	0.191	–	–	COCCOCc1ccc(-c2nc(N3CCC(F)(C(=O)NC4(C)CCN5CCC4CC5)CC3)ncc2F)cc1 (single isomer, unassigned) [Example 79, 4-Fluoro-1-(5-fluoro-4-(4-((2-methoxyethoxy)methyl)phenyl)pyrimidin-2-yl)-N-(4-methyl-1-azabicyclo[3.2.2]nonan-4-yl)piperidine-4-carboxamide]	4280	215	–	–	–	–	–	–
3.54	–	–	67.9	2.61	COCCCOc1ccc(-c2ccc(C3(NC(=O)OC4CCN5CCC4CC5)CC3)cc2)cc1 (stereo not shown) [Example 178, 1-Azabicyclo[3.2.2]nonan-4-yl (1-(4′-(3-methoxypropoxy)-[1,1′-biphenyl]-4-yl)cyclopropyl)carbamate]	–	–	≥ 10000	7100	–	–	–	–
64.7	3120	4.87	–	–	COCCOCc1ccc(-c2nc(N3CCC(F)(C(=O)NC4(C)CCN5CCC4CC5)CC3)ncc2F)cc1 (single isomer, unassigned) [Example 78, 4-Fluoro-1-(5-fluoro-4-(4-((2-methoxyethoxy)methyl)phenyl)pyrimidin-2-yl)-N-(4-methyl-1-azabicyclo[3.2.2]nonan-4-yl)piperidine-4-carboxamide]	–	1000	3540	–	–	–	–	–
203	–	–	1180	50.2	CN(C)C(=O)c1cccc(Oc2cccc(C(C)(C)NC(=O)OC3CCN4CCC3CC4)c2)c1 (stereo not shown) [Example 288, 1-Aza-bicyclo[3.2.2]nonan-4-yl 2-(3-(3-(dimethylcarbamoyl)phenoxy)phenyl)propan-2-ylcarbamate]	–	–	≥ 10000	≥ 10000	–	–	–	–
13.4	–	–	285	1.36	COCCOCc1ccc(-c2ccnc(N3CCC(C)(C(=O)NC4(C)CCN5CCC4CC5)CC3)n2)cc1 (stereo not shown) [Example 97, 1-(4-(4-((2-Methoxyethoxy)methyl)phenyl)pyrimidin-2-yl)-4-methyl-N-(4-methyl-1-azabicyclo[3.2.2]nonan-4-yl)piperidine-4-carboxamide]	–	–	≥ 10000	1000	–	–	–	–
10.5	–	–	272	2	COCCOc1cc(-c2ccc(F)cc2)nc(N2CCC(C(=O)NC3(C)CCN4CCC3CC4)CC2)n1 (stereo not shown) [Example 105, 1-(4-(4-Fluorophenyl)-6-(2-methoxyethoxy)pyrimidin-2-yl)-N-(4-methyl-1-azabicyclo[3.2.2]nonan-4-yl)piperidine-4-carboxamide]	–	–	3660	1000	–	–	–	–
4.15	–	–	0.516	0.24	COCCOc1ccc(-c2ccc(C3(NC(=O)NC4(C)CCN5CCC4CC5)CC3)cc2)cc1 (stereo not shown) [Example 165, 1-(1-(4′-(2-Methoxyethoxy)-[1,1′-biphenyl]-4-yl)cyclopropyl)-3-(4-methyl-1-azabicyclo[3.2.2]nonan-4-yl)urea]	–	–	316	31.6	–	–	–	–
6900	–	–	> 10000	360	CC1(NC(=O)N2CCN(c3cccc(-c4ncccn4)c3)CC2)CCN2CCC1CC2 (stereo not shown) [Example 26, N-(4-Methyl-1-azabicyclo[3.2.2]nonan-4-yl)-4-(3-(pyrimidin-2-yl)phenyl)piperazine-1-carboxamide]	–	–	≥ 10000	≥ 10000	–	–	–	–
3.2	50.1	0.198	–	–	C[C@@H]1CN(C(=O)NC2(C)CCN3CCC2CC3)CCN1c1nccc(-c2ccccc2)n1 (single isomer, unassigned) [Example 137]	5720	1000	–	–	–	–	–	–
2.23	–	–	12	0.0552	CC1(NC(=O)C2(O)CCN(c3nccc(-c4ccc(F)cc4)n3)CC2)CCN2CCC1CC2 (stereo not shown) [Example 99, 1-(4-(4-Fluorophenyl)pyrimidin-2-yl)-4-hydroxy-N-(4-methyl-1-azabicyclo[3.2.2]nonan-4-yl)piperidine-4-carboxamide]	–	–	3780	46.4	–	–	–	–
250	–	–	311	32.7	COCCOc1ccc(-c2ccc(C(C)(C)NC(=O)N3CCN4CCC3CC4)cc2)cc1 [Example 161, N-(2-(4′-(2-Methoxyethoxy)-[1,1′-biphenyl]-4-yl)propan-2-yl)-1,4-diazabicyclo[3.2.2]nonane-4-carboxamide]	–	–	3160	3160	–	–	–	–
36.2	–	–	303	4.64	COCCOCc1ccc(-c2cccc(N3CCC(C(=O)NC4(C)CCN5CCC4CC5)CC3)c2)cc1 (stereo not shown) [Example 69, 1-(4′-((2-Methoxyethoxy)methyl)-[1,1′-biphenyl]-3-yl)-N-(4-methyl-1-azabicyclo[3.2.2]nonan-4-yl)piperidine-4-carboxamide]	–	–	4640	1000	–	–	–	–
10.3	–	–	136	2.5	CC1(NC(=O)C2CCN(c3cccc(-c4ccccc4)c3)CC2)CCN2CCC1CC2 (stereo not shown) [Example 36, 1-([1,1′-Biphenyl]-3-yl)-N-(4-methyl-1-azabicyclo[3.2.2]nonan-4-yl)piperidine-4-carboxamide]	–	–	7570	1000	–	–	–	–
902	> 10000	63.6	–	–	C[C@@H]1CN(C(=O)NC2(C)CCN3CCC2CC3)CCN1c1nccc(-c2ccccc2)n1 (single isomer, unassigned) [Example 138]	–	3160	9310	–	–	–	–	–

SMILES	IC50 [1] [nM]	IC50 [2, 4] [nM]	IC50 [3, 5] [nM]	IC50 [2, 8] [nM]	IC50 [3, 9] [nM]	IC50 (B16 mouse melanoma cells; [6]) [nM]	IC50 (C32 human melanoma cells; [7]) [nM]	IC50 (B16 mouse melanoma cells; [10]) [nM]	IC50 (C32 human melanoma cells; [11]) [nM]	IC50 [2, 12] [nM]	IC50 [3, 13] [nM]	IC50 (B16 mouse melanoma cells; [14]) [nM]	IC50 (C32 human melanoma cells; [15]) [nM]
CCC1(NC(=O)NC2(c3ccc(-c4ccc(COCCOC)cc4)cc3)CC2)CN2CCC1CC2 (stereo not shown) [Example 206, 1-(3-Ethylquinuclidin-3-yl)-3-(1-(4′-((2-methoxyethoxy)methyl)-[1,1′-biphenyl]-4-yl)cyclopropyl)urea]	27.8	–	–	59.6	2.66	–	–	≥ 10000	1780	–	–	–	–
COCCOc1ccc(-c2ccc(C(C)(C)NC(=O)OC3CN4CCC3CC4)nc2)cc1 (stereo not shown) [Example 346, Quinuclidin-3-yl 2-(5-(4-(2-methoxyethoxy)phenyl)pyridin-2-yl)propan-2-ylcarbamate]	50.7	–	–	–	–	–	–	–	–	266	11.1	≥ 10000	3160
CC1(COc2ccc(-c3ccc(C(C)(C)NC(=O)OC4CN5CCC4CC5)cc3)cc2)COC1 (stereo not shown) [Example 191, Quinuclidin-3-yl (2-(4′-((3-methyloxetan-3-yl)methoxy)-[1,1′-biphenyl]-4-yl)propan-2-yl)carbamate]	7.2	–	–	–	–	–	–	–	–	71.8	3.24	5250	1000
COCCOc1ccc(-c2ccc(C(C)(C)NC(=O)OC3CN4CCC3CC4)cc2)cn1 (stereo not shown) [Example 307, Quinuclidin-3-yl 2-(4-(6-(2-methoxyethoxy)pyridin-3-yl)phenyl)propan-2-ylcarbamate]	735	–	–	–	–	–	–	–	–	4340	97.2	≥ 10000	≥ 10000
CCC1(NC(=O)NC(C)(C)c2ccc(-c3ccc(N4CCOCC4)cc3)cc2)CN2CCC1CC2 (stereo not shown) [Example 234, 1-(3-Ethylquinuclidin-3-yl)-3-(2-(4′-morpholino-[1,1′-biphenyl]-4-yl)propan-2-yl)urea]	14.6	–	–	32.6	1.81	–	–	1000	1000	–	–	–	–
CCCC1(NC(=O)NC(C)(C)c2ccc(-c3ccc(CCO)cc3)cc2)CN2CCC1CC2 (stereo not shown) [Example 224, 1-(2-(4′-(2-Hydroxyethyl)-[1,1′-biphenyl]-4-yl)propan-2-yl)-3-(3-propylquinuclidin-3-yl)urea]	20.2	–	–	64.3	1.6	–	–	≥ 10000	≥ 10000	–	–	–	–
